The record followed here is patent US20260124200A1, “METHOD OF TREATING NEURODEGENERATIVE DISEASES” (The Board of Trustees of the University of Illinois, priority 2022, published 2026).

The subject of series [1] is fpn-1.2KO C. elegans. Put plainly: Dopaminergic neurodegeneration scoring in fpn-1.2KO; Pdat::GFP worms. The class given is in vivo. From the text: (§1) The ability of hinokitiol and FeM-1269 to confer neuroprotection. Replicated NBIA, was created fpn-1.2KO C. elegans strain using CRISPR/Cas9-mediated knockout and then mated with Pdat::GFP strain to create a fpn-1.2KO strain with GFP-tagged dopaminergic neurons (fpn-1.2KO; Pdat::GFP). The genotype of strains was verified by genotyping PCR and Sanger sequencing. All strains used have been backcrossed to N2 at least three times. To treat C. elegans with small molecules, day 4 adult worms were transferred to NGM containing small molecules. Worms were transferred to newly seeded small molecules containing NGM until the day seven in which they are imaged using a confocal microscope with GFP fluorescence. The scoring is conducted in a blinded study in which the integrity of the dopaminergic neuron is observed to reflect neurodegeneration. […] Hinokitiol derivative FeM-1269 may have potential to increase the therapeutic index of hinokitiol. […] On the other hand, hinokitiol and FeM-1269 treatment to fpn-1.2KO worms caused robust reductions of fluorescence levels (FIG. 3G-H) from the concentration of 0.1 μM and 0.05 μM, respectively, which can be associated with the release of intracellular iron from ASI neurons. […]

Series [2] deals with fpn-1.2KO C. elegans. Kind of series: GFP-tagged ferritin (ftn-1) fluorescence in ASI neurons of fpn-1.2KO worms. It is filed as in vivo.
Text: as §1

Series [3] in a line: EPR of Fe(II) oxidation on compound binding.
Series [4] is described as follows: Cyclic voltammetry of hinokitiol-iron complexes. It is filed as physicochemical. The note with it: 100 mV/s, 0.1 M Tris, 1:1 MeOH:H2O, pH=7.2, 100 μM Fe(NO3)3. Here is the method:
These were obtained with a 100 mV/s scan rate with a Hg electrode, Ag/AgCl reference, and graphite auxiliary using a 0.1 M Tris buffer in 1:1 MeOH:H2O at pH=7.2 and 100 μM Fe(NO3)3.

Series [5] has as its target human apo-Tf (Homo sapiens, UniProt P02787). Put plainly: Iron handoff to transferrin. It is filed as biochemical. On the procedure:
For kinetic experiments, 4 μM human apo-Tf was incubated with 64 μM Fe(Hino)3 complex. The reactions were stopped at several time points using sample buffer. Samples were run using the same conditions as above. After running, the gels were stained with RAPIDStain (G-biosciences 786-31), according to the manufacturer's instructions. The formation of different Fe-Tf species was quantified by measuring the band densities using ImageLab 4.1 (Bio-Rad) and expressed as a function of molar fractions.

The test system of series [6] is flatiron mice. Kind of series: ICP-MS brain iron level in flatiron mice. It is filed as in vivo. On the procedure: In parallel to C. elegans, flatiron mice were used, a leading animal model of FPN1 deficiency due to H32R mutation of FPN1 (34, 35). These mice were subjected to ICP-MS and behavioral studies in which blood samples and tissues were collected and submitted for analysis. In addition, behavior was assessed by an elevated plus maze, exploratory mazes, and daily monitoring. […] To determine dose-dependency these mice were subjected to a singular IP injection to assess acute administration and then treated chronically via IP injections of 10 mg/kg for a week.

Series [7] in a line: LC-MS in vitro dopamine oxidation assay. It is filed as physicochemical. The note with it: 100 μM dopamine. On the procedure:
To monitor dopamine oxidation, an in vitro assay using an LC-MS was developed by monitoring dopamine concentrations via mass spectrometry hits. Samples of 100 μM dopamine were prepared and then treated with either control, hino, or FeM-1269. […] In addition, this was monitored via LC-MS to see the concentration of DAC generated in this same process.

Series [8] relates to FPN1.2KO C. elegans. Kind of series: ROS (DCF) in lysate of treated FPN1.2KO C. elegans. It is filed as in vivo. The note with it: treated day four, collected day 5, lysate with DCF.

Chain of human apo-Tf (P02787 20-698): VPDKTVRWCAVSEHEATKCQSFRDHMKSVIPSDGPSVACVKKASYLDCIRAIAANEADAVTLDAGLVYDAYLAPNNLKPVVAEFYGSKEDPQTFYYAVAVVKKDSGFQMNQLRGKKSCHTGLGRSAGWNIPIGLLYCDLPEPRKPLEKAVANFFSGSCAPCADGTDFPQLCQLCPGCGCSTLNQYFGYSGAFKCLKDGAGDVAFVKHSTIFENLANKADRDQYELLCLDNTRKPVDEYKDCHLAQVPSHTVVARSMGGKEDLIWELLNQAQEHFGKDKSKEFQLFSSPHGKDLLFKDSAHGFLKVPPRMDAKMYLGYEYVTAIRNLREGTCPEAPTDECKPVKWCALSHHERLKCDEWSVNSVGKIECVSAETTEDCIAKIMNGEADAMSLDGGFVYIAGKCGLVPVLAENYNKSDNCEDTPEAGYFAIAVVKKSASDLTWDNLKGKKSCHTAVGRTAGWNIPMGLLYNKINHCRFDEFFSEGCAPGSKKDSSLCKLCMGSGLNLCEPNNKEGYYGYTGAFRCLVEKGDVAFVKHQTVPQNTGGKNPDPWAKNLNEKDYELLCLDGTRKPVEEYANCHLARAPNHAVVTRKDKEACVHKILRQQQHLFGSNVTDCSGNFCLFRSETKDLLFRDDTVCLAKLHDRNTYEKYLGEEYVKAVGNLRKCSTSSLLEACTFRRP

Turning to `Cc1c(O)c(=O)ccn1C` [DFP, deferiprone], in series [1] (all concentrations administered), the “neuroprotective effect (dopaminergic neurodegeneration score)” value is “did not confer neuroprotective effects”. For the same molecule, the “ferritin-GFP fluorescence level in ASI neurons” value in series [2] (all administered concentrations) is recorded as “failed to reduce the fluorescence level”.

On to `CC(C)c1cccc(=O)c(O)c1` [hinokitiol], for which the “ferroxidase-mimicking activity (EPR)” value in series [3] (EPR results) is on record as “promoting Fe(II) oxidation to Fe(III)”. Besides, the “EPR signal g′” value in series [3] (Fe(II) plus compound 3:1, 1:1 MeOH:H2O, 77K) turned out to be 4.3. Moreover, the “redox potentials of Fe:Hino” value in series [4] is “decreased with increasing hinokitiol concentrations”. Besides, in series [5], the “iron handoff to transferrin” value is listed as “can handoff iron to transferrin”. In series [1] (worms treated day 4 to day seven), the “concentration showing neuroprotective efficacy” value is 0.05 to 0.1 µM. Further, the blood-brain barrier penetration result in series [6] (inferred from brain iron decrease) is reported as “capacity to penetrate blood-brain barrier”. The “brain iron level after acute administration” value in series [6] (singular IP injection) is “dose-dependent decrease of brain iron level”. Besides, the “concentration from which fluorescence levels are robustly reduced” value in series [2] (ASI neurons, GFP-tagged ferritin) was not below 0.1 µM. In addition, the “dopamine oxidation (dopamine remaining)” value in series [7] is listed as “mitigating dopamine oxidation”. Besides, the “ROS level in vivo” value in series [8] is listed as “restore wild type levels of ROS”.
